The test system of data set [1] is TGF-β1 growth inhibition of Mv1Lu cells. The data set is described as follows: Mv1Lu growth inhibition assay with TGF-β1. The format is cell-based, mink. Particulars: TGF-β1 1.5 ng/mL serially diluted to 0.095 ng/mL with compound, FIGS. 4A-4D. As for the experimental part: Mv1Lu cells were purchased from ATCC. Growth inhibition assays for Mv1Lu and CHO cells were performed as described by Danielpour et al., in J. Cell. Physiol., 1989, 138, 79-86, using 0.2% fetal bovine serum to limit binding proteins present in serum. Mv1Lu cells were cultured in the presence of a standard TGF-β dilution curve starting at 1.5 ng/mL and serially diluted to 0.047 ng/mL or in the presence of TGF-β1 (1.5 ng/mL serially diluted to 0.095 ng/mL) with the compound. For each tested compound, one assay contained only the compound and no added TGF-β1.

The target of a further data set is ^125I labeled TGF-β1 (Homo sapiens, UniProt P01137). The data set is described as follows: 125I labeled TGF-β1 remaining in solution after incubation with compound and centrifugation. Particulars: for Amount of ^125I labeled TGF-β1 in solution: 0.5 μL compound in 100 μL DMEM, 0.2% FBS overnight, 90 μL supernatant counted. How it is done: About 10 μL of ^125I labeled TGF-β1 (22.78 μCi/ml, 6.3 pmole/ml) was incubated with 0.5 μL of the compound in 100 μL of DMEM, 0.2% FBS overnight and then centrifuged. […] However, for compound NSC 119889 there was approximately a 40% increase in the amount of ^125I that remained in solution relative to the control. While this might be due to the compound decreasing adherence of TGF-β to the microcentrifuge tube, the lack of precipitation of the ^125I labeled TGF-β is consistent with the compounds blocking interaction of TGF-β1 with the receptor possibly by direct interaction with the receptor.

The subject of data set [2] is TGF-β1 stimulated growth of CHO cells. In words: CHO cell growth stimulation by TGF-β1. The format is cell-based, Chinese hamster. The note with it: 1 L (FIG. 5A) and 2 μL (FIG. 5B) of blocking compound. How it is done:
(§1) Mv1Lu cells were purchased from ATCC. Growth inhibition assays for Mv1Lu and CHO cells were performed as described by Danielpour et al., in J. Cell. Physiol., 1989, 138, 79-86, using 0.2% fetal bovine serum to limit binding proteins present in serum.

A further data set addresses T1, TβRIII (Homo sapiens, UniProt Q03167).
T1 construct: purchased R&D Systems
T1 sequence (Q03167 21-787 limits assumed): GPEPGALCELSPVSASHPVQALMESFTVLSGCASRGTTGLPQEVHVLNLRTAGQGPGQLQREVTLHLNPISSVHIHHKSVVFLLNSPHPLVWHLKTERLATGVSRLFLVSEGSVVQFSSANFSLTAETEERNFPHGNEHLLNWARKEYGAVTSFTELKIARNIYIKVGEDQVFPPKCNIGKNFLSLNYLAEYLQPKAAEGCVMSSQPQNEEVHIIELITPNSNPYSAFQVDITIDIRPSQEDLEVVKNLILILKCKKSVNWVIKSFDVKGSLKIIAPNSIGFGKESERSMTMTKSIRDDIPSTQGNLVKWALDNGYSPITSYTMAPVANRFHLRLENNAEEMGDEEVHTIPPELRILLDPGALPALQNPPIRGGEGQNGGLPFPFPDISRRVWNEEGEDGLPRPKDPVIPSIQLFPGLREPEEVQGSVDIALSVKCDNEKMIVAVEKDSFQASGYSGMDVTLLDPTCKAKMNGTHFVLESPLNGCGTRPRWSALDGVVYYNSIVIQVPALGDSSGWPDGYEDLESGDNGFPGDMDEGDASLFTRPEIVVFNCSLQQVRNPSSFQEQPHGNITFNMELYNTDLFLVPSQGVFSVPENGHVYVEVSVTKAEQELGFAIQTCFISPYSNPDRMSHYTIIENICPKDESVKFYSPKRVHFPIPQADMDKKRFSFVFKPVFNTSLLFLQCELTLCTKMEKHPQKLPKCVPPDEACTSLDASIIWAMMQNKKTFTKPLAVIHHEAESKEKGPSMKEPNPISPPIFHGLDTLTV
The data set is described as follows: Soluble TβRIII receptor assay with 125I labeled TGF-β1. Particulars: for Amount of ^125I labeled TGF-β1 bound to TβRIII: soluble receptor assay, control 25048. The format is binding. How it is done: The compound NSC 119889 and related molecules also block soluble TGF-β receptor type III (TβRIII). TβRIII binds TGF-β1 and TGF-β2 and is involved in presenting TGF-β2 to TβRII. […] TβRIII was purchased from R&D Systems (Minneapolis, Minn.). It was used at concentration of 500 ng/mL in the soluble receptor assay when Immulon 2HB plates were used and at 1 μg/mL when Immulon 1B plates were used.

The nature of data set [3]: Precipitate formation / solubility. In kind it is physicochemical. The note with it: for Solubility: Table 3; for precipitate formation when diluted into water: room temperature, centrifugation at 17,000×G.
For a further data set, the system named is CHO cells. The data set is described as follows: CHO cell growth, tritiated thymidine incorporation. In kind it is cell-based, Chinese hamster. Particulars: for amount of radioactivity incorporated into CHO cells: tritiated thymidine. As for the experimental part: as §1
Chinese hamster ovarian (i.e., CHO) cells were cultured in the presence of compounds and tested for growth in the presence of tritiated thymidine. […] The reported value is the average of duplicate assays.
(Uptake of a labelled nucleoside into DNA is a usual measure of proliferation.)

Data set [4] has as its system TGF-β1 activity in CHO cells carrying the plasmid pTARE-Luc. In words: pTARE luciferase reporter assay in CHO cells. Particulars: compound 1 μL/mL with added TGF-β1 25 ng/mL, FIG. 2B. In kind it is cell-based, Chinese hamster. How it is done: The pTARE luciferase reporter system was purchased from Stratagene (La Jolla, Calif.) and transfected into CHO (Chinese Hamster Ovary) cells that were purchased from ATCC (American Type Culture Collection). The plasmid pSV2neo was co-transfected with pTARE at a 40 fold lower concentration to allow for selection of colonies that received plasmid DNA using G418. Luciferase assays were performed as described using Luciferase assay system and reporter lysis buffer (Promega, Madison, Wis.). Luciferase was quantitated using a luminometer (Turner Designs, Inc., Sunnyvale, Calif.).
Compounds of Table 1 (see Example 1 above) were further tested for their ability to modulate TGF-β1 activity. Briefly, the CHO cells carrying the plasmid pTARE-Luc were treated either with each compound individually (1 μL/mL) or with added TGF-β1 (25 ng/mL). Without being bound by any theory, it is believed that testing the compound by itself in this assay allows the identification of candidate TβRII agonists while testing the chemical in the presence of TGF-β1 allows the identification of candidate TGF-β1 antagonists.
For orientation: In a reporter assay the amount or activity of a reporter protein is the signal.

Another data set deals with T2, TβRII (Homo sapiens, UniProt P37173).
T2 construct: purchased R&D Systems
In words: Soluble TβRII binding assay with 125I labeled TGF-β1. The note with it: I-125 TGF-β1, increasing concentration of competitor, FIG. 6. As for the experimental part:
Immulon 1B or 2 HB 96 well plates (Dynex Technologies, Inc., Chantilly, Va.) were coated with 100 μL/well of 500 ng/mL TβRII (R&D Systems, Minneapolis, Minn.) in phosphate buffered saline overnight at 4° C. and then blocked for 1 hr with 150 μL/well of 1% bovine serum albumin, 150 mM NaCl, 100 mM tris-HCl, pH 7.6. Following washing with PBS/0.05% Tween 20 (wash buffer, i.e., “WB”) samples were serially diluted in 1 mg/mL BSA, 0.15 M NaCl, 100 mM tris-HCl, pH 7.6, 0.05% Tween 20 containing 5 ng/mL of ^125I labeled TGF-β1 as described by Frolik et al., in J. Biol. Chem., 1984, 259, 10995-11000. Samples were incubated in the wells with TβRII for one hour at room temperature and then the plates were washed with WB. Individual wells were separated and counted.
To identify novel organic chemicals that block TGF-B activity, about 30,000 chemicals from the National Cancer Institute Developmental Therapeutics program open repository were screened. This repository contains about 140,000 chemicals. For screening, soluble TBRII was attached to an immulon 2 HB plate and then blocked with BSA. About 1 μL of each test chemical was diluted from the stock plate into 125 μL of dilution buffer containing 5 ng/mL I-125 labeled TGF-β1. In some cases, 1 μL of four chemicals each was combined to allow higher throughput. […]

Sequence of ^125I labeled TGF-β1 (P01137 279-390 limits assumed): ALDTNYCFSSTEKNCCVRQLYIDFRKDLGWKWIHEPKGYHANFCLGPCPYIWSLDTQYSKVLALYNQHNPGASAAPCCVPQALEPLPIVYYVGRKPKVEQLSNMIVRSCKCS
T2 sequence (P37173 23-166 limits assumed, species assumed): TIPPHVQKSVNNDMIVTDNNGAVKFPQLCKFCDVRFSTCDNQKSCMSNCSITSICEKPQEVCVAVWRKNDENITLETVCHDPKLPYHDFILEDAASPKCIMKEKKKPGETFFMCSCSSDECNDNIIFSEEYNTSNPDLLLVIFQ

On to `O=C(O)c1c(Br)c(Br)c(Br)c(Br)c1C1c2ccc(O)cc2Oc2cc(O)ccc21` [NSC 119889], for which the “blocking of growth inhibition of TGF-β1” value in data set [1] is recorded as “blocks growth inhibition of TGF-β1”. Also, the “Amount of ^125I labeled TGF-β1 in solution” value was found to be 38324 at ^125I labeled TGF-β1 (first value column), 27159 on ^125I labeled TGF-β1 (second value column) and 29239 at ^125I labeled TGF-β1 (third value column). The “increase in the amount of ^125I that remained in solution relative to the control” value at ^125I labeled TGF-β1 (relative to control) is on record as about 40%. In addition, the “blocking of TGF-β1 stimulation of CHO cell growth” value in data set [2] is reported as “This stimulation was blocked”. Moreover, the “blocking of binding of ^125I labeled TGF-β1 to TβRIII (in words)” value on TβRIII is recorded as “blocks binding of the ^125I labeled TGF-β1 to TβRIII”. Further, the “Amount of ^125I labeled TGF-β1 bound to TβRIII” value on TβRIII worked out at 746. Further, the Solubility result in data set [3] is given as “no ppt”. Moreover, the “precipitate formation when diluted into water” value (“precipitate formation” below) in data set [3] is on record as “form less or no precipitate”. For the same compound, the “amount of radioactivity incorporated into CHO cells” value in the data set on CHO cells (Experiment 1, average of duplicate assays) is reported as 1475; in the data set on CHO cells (Experiment 2, average of duplicate assays), 936. Also, in the data set with CHO cells (two experiments), the “growth of CHO cells (in words)” value was “did not substantially inhibit growth of CHO cells”. The “luciferase activity in the presence of TGF-β1” value in data set [4] is “marked reduction in luciferase activity”.

On to `O=C(O)C1CCCCC1c1c2ccc(=O)c(O)c-2oc2c(O)c(O)ccc12` (stereo not shown) [NSC 119910], for which the figures for the “Amount of ^125I labeled TGF-β1 in solution” value at ^125I labeled TGF-β1 (second value column) and on ^125I labeled TGF-β1 (third value column) were 24924 and 20587, respectively. In addition, the Solubility entry in data set [3] is “ppt”. Besides, the “precipitate formation” value in data set [3] is listed as “form precipitates”.

Regarding `O=C(O)/C=C/c1c2ccc(=O)c(O)c-2oc2c(O)c(O)ccc12` [NSC 119911], in data set [1], the “blocking of growth inhibition of TGF-β1” value is “blocks growth inhibition by TGF-β1”. The “Amount of ^125I labeled TGF-β1 in solution” value is recorded as 33990 on ^125I labeled TGF-β1 (first value column), 25748 at ^125I labeled TGF-β1 (second value column) and 24534 on ^125I labeled TGF-β1 (third value column). Further, the “Amount of ^125I labeled TGF-β1 bound to TβRIII” value on TβRIII came out at 769. Further, the Solubility entry in data set [3] is on record as “ppt”. In addition, the “precipitate formation” value in data set [3] is reported as “form precipitates”.

On to `CC1C2C=CC1C(c1c3ccc(=O)c(O)c-3oc3c(O)c(O)ccc13)C2C(=O)O` (stereo not shown) [NSC 119913], for which the figures for the “Amount of ^125I labeled TGF-β1 in solution” value on ^125I labeled TGF-β1 (second value column) and at ^125I labeled TGF-β1 (third value column) were 27614 and 27960, respectively. In addition, in data set [3], the Solubility entry was “no ppt”. Also, the “precipitate formation” value in data set [3] is listed as “form less or no precipitate”.

For `O=C(O)CCc1c2ccc(=O)c(O)c-2oc2c(O)c(O)ccc12` [NSC 119915], the “blocking of growth inhibition of TGF-β1” value in data set [1] is listed as “blocks growth inhibition of TGF-β1”. The “Amount of ^125I labeled TGF-β1 in solution” value at ^125I labeled TGF-β1 (first value column) is given as 33660; at ^125I labeled TGF-β1 (second value column), 25308; on ^125I labeled TGF-β1 (third value column), 20770. Besides, the “Amount of ^125I labeled TGF-β1 bound to TβRIII” value at TβRIII was 726. In data set [3], the Solubility result is reported as “ppt”. In addition, the “precipitate formation” value in data set [3] was “form precipitates”.

`Oc1cc(O)c2c(c1)OC(c1ccc(O)c(O)c1)C(OC1(c3cc(O)c(O)c(O)c3)Oc3cc(O)cc(O)c3C(O)C1O)C2` (stereo not shown) [NSC 143101]: the “Amount of ^125I labeled TGF-β1 in solution” value at ^125I labeled TGF-β1 (first value column) amounted to 34567. Also, the Solubility result in data set [3] is listed as “no ppt”.

Regarding `O=C(O)c1c[nH]c2cc(OCc3ccccc3)ccc2c1=O` [NSC 306960], in data set [1], the “blocking of growth inhibition of TGF-β1” value is “did not block the growth inhibition activity of TGF-β1”. Besides, the “Amount of ^125I labeled TGF-β1 in solution” value at ^125I labeled TGF-β1 (first value column) is on record as 32155. Further, the Solubility result in data set [3] is given as “no ppt”. For the same compound, the “luciferase activity in the presence of TGF-β1” value in data set [4] is listed as “did not inhibit TGF-β1 induction of luciferase activity”.

Take “TGF-β1: non-labeled TGF-β1 protein used as competitor for TβRII in the binding competition curve”: in the data set with TβRII, the “binding competition vs TGF-β1 for soluble TβRII, effective concentration range” value is listed as “nanomolar range”.

(Values after patent US20090176870A1, “TGF-BETA MODULATORS AND METHODS FOR USING THE SAME” (MARSHFIELD CLINIC, priority 2005, published 2009).)
